Test results: patent publication US20210299076A1, “AMINO ACID FORMULATIONS AND USES THEREOF” (University of Florida Research Foundation, Incorporated, priority 2012, published 2021)
Several values for one entry are separate records, joined by “and”; a condition that tells them apart may be missing. Identical values can stand only once. Entries after “also recorded” stand apart in the source; their conditions may differ. Each block holds one molecule with its values, some of them ahead of it.

Assays:
[1] = test system: ileum (HCO3− secretion); experiment: pH stat HCO3− secretion in ileum; assay type: cell-based, mouse; settings: for Effect on lumen Cl−-independent HCO3− secretion stimulated by glucose: 100 μM on lumen side, 6 mM glucose
Method: pH stat studies are performed to determine whether HCO3^− secretion contributes to the unaccounted portion of the Isc. At least two modes of HCO3^− secretion in the mouse small intestine have been identified by the present inventors: 1) Cl^−-dependent, electroneutral Cl^−—HCO3^− exchange, and 2) Cl^−-independent, electrogenic HCO3^− secretion. […] Specifically, HCO3^−-free, poorly buffered solution is added to both sides of the tissues mounted in an Ussing chamber and both sides of the tissues are bubbled with 100% O2. Minimal HCO3^− secretion (0.1±0.01 mEq.h^−1.cm^−2, n=12) is recorded under such conditions. Subsequent addition of HCO3^−-containing buffered solution to the basolateral side and bubbling with 95% O2 and 5% CO2 on that side results in significant HCO3^− secretion 3.8±0.2 mEq.h^−1.cm^−2 (n=9). To determine whether lumen Cl^−-independent HCO3^− secretion plays a role in HCO3^− secretion (in the absence of lumen glucose), pH stat experiments are performed in the absence of lumen Cl^−. In the absence of lumen Cl^−, minimal HCO3^− secretion is recorded (0.4±0.1 pEq.h^−1.cm^−2) (FIG. 5A). […] The HCO3^− secretion in the presence of glucose could be due to a lumen Cl^−-dependent, electroneutral Cl—HCO3^− exchange or a lumen Cl^−-independent anion channel-mediated HCO3^− secretion. To assess the mechanism of glucose-stimulated HCO3^− secretion, glucose is added to the mucosal side.

[2] = molecular target: T1, SGLT1 (Mus musculus, UniProt Q8C3K6); experiment: Saturation kinetics of Na+-coupled glucose / 3-OMG transport (Isc, Ussing chamber, ileal sheets); assay type: cell-based
T1 construct: from tissue; host or cells: ileal mucosa of NIH Swiss mice
T1 sequence (Q8C3K6 1-665): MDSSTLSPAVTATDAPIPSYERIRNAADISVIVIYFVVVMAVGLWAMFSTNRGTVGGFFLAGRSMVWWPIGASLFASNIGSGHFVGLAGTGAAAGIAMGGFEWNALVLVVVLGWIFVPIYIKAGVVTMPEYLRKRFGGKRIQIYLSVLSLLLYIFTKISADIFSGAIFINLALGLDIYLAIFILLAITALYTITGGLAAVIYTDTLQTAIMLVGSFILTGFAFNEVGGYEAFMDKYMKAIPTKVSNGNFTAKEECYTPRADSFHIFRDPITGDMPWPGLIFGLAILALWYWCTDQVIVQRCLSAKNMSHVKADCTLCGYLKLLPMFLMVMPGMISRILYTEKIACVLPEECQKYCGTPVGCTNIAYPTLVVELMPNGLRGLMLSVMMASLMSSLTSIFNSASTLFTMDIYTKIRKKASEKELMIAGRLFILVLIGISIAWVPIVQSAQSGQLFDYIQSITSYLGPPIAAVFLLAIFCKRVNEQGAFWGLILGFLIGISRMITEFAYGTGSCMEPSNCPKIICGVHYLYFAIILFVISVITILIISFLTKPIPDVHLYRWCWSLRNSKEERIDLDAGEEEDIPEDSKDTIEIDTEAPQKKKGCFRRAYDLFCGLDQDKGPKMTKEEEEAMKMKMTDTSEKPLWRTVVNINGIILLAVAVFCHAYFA
Text: (§1) Normally fed, 8-week-old, male NIH Swiss mice are sacrificed by CO2 inhalation, followed by cervical dislocation. The small intestine is gently removed, and the segment is washed and flushed in ice-cold Ringer's solution. Then the mucosa is separated from the serosa and the muscular layers by striping through the submucosal plane as previously described (Zhang et al. (2007) J Physiol 581(3):1221-1233). Following exsanguinations, ileal mucosa is obtained from a 10 cm segment close to the caecum. All experiments are approved by the University of Florida Institutional Animal Care and Use Committee.
(§2) Ion transport studies are performed on ileal sheets. Tissues are then mounted in between the two halves of an Ussing type-Lucite chamber with 0.3 cm^−2 exposed surface areas (P2304, Physiologic Instruments, San Diego, Calif., USA). […] The basal short-circuit current (Isc) and the corresponding conductance (G) are recorded using a computer controlled voltage/current clamp device (VCC MC-8, Physiologic Instruments).
(§3) Tissues paired with similar conductance and current are treated with or without 100 μM H-89 (Santa Cruz Biotechnology, Inc, Santa Cruz, Calif.), an irreversible protein kinase A (PKA) inhibitor. […] Saturation kinetic constant is calculated for the corresponding Km and Vmax for treated and untreated tissues. […]

[3] = test system: intracellular cAMP in ileal epithelial cells; experiment: Colorimetric intracellular cAMP measurement in ileal villus and crypt cells; assay type: cell-based, mouse; settings: villus cells
Method: Freshly isolated mucosal scrapings of ileal epithelial cells are washed three times in Ringer's solution containing 1.2 mM Ca^2+ at 37° C. […] Cells are treated with 0.1 M HCl to stop endogenous phosphodiesterase activity. The lysates are then used for cAMP assay using cAMP direct immunoassay kit (Calbiochem, USA). The quantitative assay of cAMP uses a polyclonal antibody to cAMP that binds to cAMP in samples in a competitive manner. After a simultaneous incubation at room temperature, the excess reagents are washed away and substrates are added. After a short incubation time, the reaction is stopped and the yellow color generated is read at 405 nm. The intensity of the color is inversely proportional to the concentration of cAMP in standards and samples. cAMP levels are standardized to protein levels from respective fractions and expressed in pmol (mg protein)^−1. Forskolin treated cells are used as a positive control. Glucose and forskolin treated cells are incubated for 45 minutes. All the assays are performed in triplicate and repeated until n=4 different mice.

[4] = test system: Caco-2 cells; experiment: Confocal Ca2+ fluorescence microscopy (Fluo-8) in Caco-2 cells; assay type: cell-based
Method: Caco-2 cells are obtained from ATTC and cultured in Dulbecoo's modified Eagle's medium supplemented with 10% fetal calf serum (FCS) and 1% nonessential amino acids at 37° C. and 5% CO2. Caco-2 cells are passaged for 20-25 times and are seeded (2×10^5 cells/dish) on 5 cm petri-dishes and grown until 80% confluence, when the FCS concentration is changed to 5%. Cells are grown for another 10 days before they are used for functional studies.
Caco2 cells grown in 25 mm round coverslips are mounted on the bath chamber RC-21BR attached to series 20 stage adapter (Warner Instruments, CT USA). […] Fluorescence is recorded by argon lasers with excitation at 488 nm and emission at 515 nm. […] Changes are recorded and fluorescence is measured for various cells. […]
To determine the role of intracellular Ca^2+ in glucose-stimulated increase in Isc, intracellular Ca^2+ level is measured in the presence of different concentrations of glucose and 3-OMG, respectively, and in the presence of BAPTA-AM (1,2-bis(o-aminophenoxy)ethane-N,N,N′,N′-tetraacetic acid)—an intracellular calcium-specific chelator. The Ca^2+ responses to glucose and 3-OMG in cultured Caco2 cells loaded with the Ca^2+ indicator fluo 8 are monitored by laser scanning confocal microscopy. […] The mean peak amplitude of calcium fluorescence (F/Fo) with 0.6 mM glucose is calculated to be 1.32±0.1 (n=10).

[5] = test system: mouse ileum; experiment: Bio-electric measurement of short-circuit current (Isc) in ileal sheets, Ussing chamber; assay type: cell-based; settings: for Effect on glucose- or 3-OMG-stimulated increase in Isc: tissues pre-treated with H-89
Text: as §1
Ion transport studies are performed on ileal sheets. Tissues are then mounted in between the two halves of an Ussing type-Lucite chamber with 0.3 cm^−2 exposed surface areas (P2304, Physiologic Instruments, San Diego, Calif., USA). Regular Ringer's solution (115 mM NaCl, 25 mM NaHCO3, 4.8 mM K2HPO4, 2.4 mM KH2PO4, 1.2 mM MgCl2 and 1.2 mM CaCl2) bubbled with 95% O2: 5% CO2 is used bilaterally as bathing solution for the tissues and the temperature is maintained constant at 37° C. The chambers are balanced to eliminate osmotic and hydrostatic forces. Resistance due to fluid is also compensated. The tissues are allowed to stabilize. The basal short-circuit current (Isc) and the corresponding conductance (G) are recorded using a computer controlled voltage/current clamp device (VCC MC-8, Physiologic Instruments).
Tissues paired with similar conductance and current are treated with or without 100 μM H-89 (Santa Cruz Biotechnology, Inc, Santa Cruz, Calif.), an irreversible protein kinase A (PKA) inhibitor. The tissues are incubated with H-89 for 30 minutes. Increasing concentrations of glucose (0.015-8 mM) are added every 5 minutes and the peak current is noted. Saturation kinetic constant is calculated for the corresponding Km and Vmax for treated and untreated tissues.
To investigate whether inhibition of glucose transport abolishes PKA-sensitive current, experiments are conducted using phlorizin (Santa Cruz Biotechnology, Inc, Santa Cruz, Calif., USA), a reversible competitive inhibitor of SGLT1. Specifically, ileal tissues mounted in Ussing chamber are treated with 100 μM phlorizin on the lumen side and glucose saturation kinetic studies are conducted.

[6] = substrate: CO[C@@H]([C@H](O)[C@H](O)CO)[C@@H](O)C=O; experiment: Saturation kinetics of Na+-coupled glucose / 3-OMG transport (Isc, Ussing chamber, ileal sheets); assay type: cell-based, mouse; settings: 37.0 °C
Text: as §1, §2, §3

[7] = FIG. 5B, lumen Cl− present, 100 μM DIDS, 10 μM NPPB

Molecule: O=S(=O)(O)c1cc(N=C=S)ccc1C=Cc1ccc(N=C=S)cc1S(=O)(=O)O [DIDS, 4,4′-diisothiocyano-2,2′-stilbenedisulfonic acid]
Effect on HCO3− secretion in the absence of glucose [1, 7]: abolishes HCO3^− secretion

Vmax ([2]; Table 1, no PKA inhibitor, n = 8 tissues): 2.7 ± 0.1 | Vmax ([2]; Table 1, with H-89, n = 8 tissues): 1.4 ± 0.1
Molecule: CO[C@@H]([C@H](O)[C@H](O)CO)[C@@H](O)C=O [Formulation 3-OMG, 3-O-methylglucose]
HCO3− secretion ([1]; 6 mM 3-OMG, absence of lumen and bath HCO3−): 0.1±0.03 μEq.h^−1.cm^−2 | Intracellular cAMP level compared to 6 mM glucose ([3]; 3-OMG 6 mM, P<0.01): significantly higher | Intracellular cAMP level ([3]; 3-OMG 0.6 and 6 mM, 45 minutes): significant increase | Mean peak amplitude of calcium fluorescence (F/Fo) ([4]; 0.6 mM in bath medium, n=10): 1.2±0.1 and 1.2±0.2 | Mean peak amplitude of calcium fluorescence (F/Fo) ([4]; 6 mM in bathing medium): 1.5±0.1

Molecule: O=S(=O)(NCCNC/C=C/c1ccc(Br)cc1)c1cccc2cnccc12 [Formulation H-89]
Effect on glucose- or 3-OMG-stimulated increase in Isc [5]: significant decrease in Isc | Effect on glucose- or 3-OMG-stimulated increase in Isc ([5]; listed as H89): significant reduction

Molecule: COc1ccc(Cl)cc1C(=O)NCCc1ccc(S(=O)(=O)NC(=O)NC2CCCCC2)cc1 [Glibenclamide, glibenclamide]
Effect on lumen Cl−-independent HCO3− secretion stimulated by glucose [1]: inhibits

Molecule: O=C(O)c1cc([N+](=O)[O-])ccc1NCCCc1ccccc1 [NPPB, 5-nitro-2-(3-phenylpropylamino)-benzoic acid]
Effect on lumen Cl−-independent HCO3− secretion stimulated by glucose [1]: inhibits | Effect on HCO3− secretion in the absence of glucose [1, 7]: does not have any inhibitory effect | Effect on HCO3− secretion in the presence of 6 mM glucose [1, 7]: inhibits

Molecule: N=C(N)NC(=O)c1nc(Cl)c(N)nc1N [amiloride]
Effect on Isc ([5]; 10 μM on mucosal side of small intestine): no effect

Molecule: O=C(CCc1ccc(O)cc1)c1c(O)cc(O)cc1O[C@@H]1O[C@H](CO)[C@@H](O)[C@H](O)[C@H]1O [phlorizin]
Effect on glucose- and/or 3-OMG-stimulated increase in Isc ([5]; 100 μM phlorizin on lumen side): no response; also recorded: completely abolished

B1: SGLT1 (Mus musculus) (protein)
chain: T1 sequence (Q8C3K6 1-665)
notes: Ion transport studies are performed on ileal sheets; from tissue; host or cells: ileal mucosa of NIH Swiss mice
Km ([6]; other: Table 1, no PKA inhibitor, n = 8 tissues): 200 µM | Km ([6]; other: increasing lumen concentrations up to 8 mM, 140 mM Na+, no inhibitor): 220 ± 70 µM
